Like-named read-outs stand apart in the source and are kept apart here. Each block holds one molecule with its values, some of them ahead of it.
Experiments:
[1] = system: DU145; test: in vitro screen against human tumor cell line DU-145 (prostate), GI50; format: cell-based
[2] = system: KB; test: in vitro screen against human tumor cell line KB (nasopharyngeal), GI50; format: cell-based; conditions: for GI50: read-out: GI50 KB
[3] = system: KBvin; test: in vitro screen against KBvin cell line, GI50; format: cell-based
[4] = system: A549; test: in vitro screen against human tumor cell line A549 (lung), GI50; format: cell-based
[5] = system: HCT-8; test: in vitro screen against human tumor cell line HCT-8 (colon), GI50; format: cell-based
[6] = Example 2, Table 2, 12-aza-antofines, read-out: GI50 DU145
[7] = Example 2, Table 2, 12-aza-antofines
[8] = Example 2, Table 2, 12-aza-antofines, read-out: GI50 A549
[9] = Homo sapiens, DU-145, Example 3, Table 1, read-out: GI50 DU145
[10] = Homo sapiens, KB, Example 3, Table 1
[11] = Homo sapiens, KBVIN, Example 3, Table 1
[12] = Homo sapiens, A549, Example 3, Table 1, read-out: GI50 A549
[13] = Homo sapiens, DU-145, Example 2, Table 2, 12-aza-antofines, read-out: GI50 DU145
[14] = Homo sapiens, KB, Example 2, Table 2, 12-aza-antofines
[15] = Homo sapiens, A549, Example 2, Table 2, 12-aza-antofines, read-out: GI50 A549
[16] = Homo sapiens, HCT-8, Example 2, Table 2, 12-aza-antofines, read-out: GI50 HCT-8
[17] = Homo sapiens, DU-145, read-out: GI50 DU145
[18] = Homo sapiens, A549, read-out: GI50 A549
[19] = Homo sapiens, HCT-8, read-out: GI50 HCT-8
[20] = Homo sapiens, DU-145, Example 2, Table 3, 13-aza-cryptopleurines, read-out: GI50 DU145
[21] = Homo sapiens, KB, Example 2, Table 3, 13-aza-cryptopleurines
[22] = Homo sapiens, A549, Example 2, Table 3, 13-aza-cryptopleurines, read-out: GI50 A549
[23] = Homo sapiens, HCT-8, Example 2, Table 3, 13-aza-cryptopleurines, read-out: GI50 HCT-8

melting point: 93 to 95 °C
Molecule: COc1ccc2c3c(c4cc(OC)c(OC)cc4c2c1)C[C@H]1CN(CC(C)C)CN1C3

Molecule: COc1ccc2c3c(c4cc(OC)c(OC)cc4c2c1)CC1CN(C)CN1C3 (stereo in doubt) [Compound 3k, (R)-12-aza-12N-dimethylamino-antofine]
GI50 [1, 6]: 6.01 µM
GI50 [2, 7]: 2.38 µM
GI50 ([3]; Homo sapiens, Table 2, cells marked (KBvin) in the HCT-8 column): 11 µM
GI50 [4, 8]: 4.15 µM

melting point: 113 to 115 °C
Molecule: COc1ccc2c3c(c4cc(OC)c(OC)cc4c2c1)C[C@H]1CN(Cc2ccccc2)CN1C3 [3a]

Molecule: COc1ccc2c3c(c4cc(OC)c(OC)cc4c2c1)C[C@H]1[C@@H](O)CCN1C3 [Compound 3a]
GI50 [1, 9]: 3.2 µM
GI50 [2, 10]: 1.83 µM
GI50 [3, 11]: 3.42 µM
GI50 [4, 12]: 2.81 µM

Molecule: COc1ccc2c3c(c4cc(OC)c(OC)cc4c2c1)C[C@H]1[C@H](O)CCN1C3 [Compound 3b]
GI50 [1, 9]: 0.85 µM
GI50 [2, 10]: 0.5 µM
GI50 [3, 11]: 0.64 µM
GI50 [4, 12]: 0.27 µM

Molecule: CCCN1C[C@@H]2Cc3c(c4ccc(OC)cc4c4cc(OC)c(OC)cc34)CN2C1 [Compound 3c, (S)-12-aza-12N-propyl-antofine]
GI50 [1, 13]: 7.38 µM
melting point: 155 to 157 °C
GI50 [2, 14]: 6.64 µM
GI50 [4, 15]: 3.94 µM
GI50 [5, 16]: 2.71 µM

Molecule: COc1ccc2c3c(c4cc(OC)c(OC)cc4c2c1)C[C@H]1CN(CCc2ccccc2)CN1C3 [Compound 3d, (S)-12-aza-12N-phenylethylenyl-antofine]
GI50 [1, 17]: 10.2 µM
melting point: 85 to 87 °C
GI50 ([2]; Homo sapiens, KB): 10 µM
GI50 [4, 18]: 6.62 µM
GI50 [5, 19]: 7.47 µM

Molecule: COc1ccc2c3c(c4cc(OC)c(OC)cc4c2c1)C[C@H]1CN(CCO)CN1C3 [Compound 3e, (S)-12-aza-12N-hydroxylethyl-antofine]
GI50 [1, 13]: 6.36 µM
melting point: 210 to 212 °C
GI50 [2, 14]: 7.83 µM
GI50 [4, 15]: 4.41 µM
GI50 [5, 16]: 10.8 µM

Molecule: COc1ccc2c3c(c4cc(OC)c(OC)cc4c2c1)C[C@H]1CN(C2CC2)CN1C3 [Compound 3g, (S)-12-aza-12N-cyclopropyl-antofine]
GI50 [1, 13]: 3.7 µM
melting point: 204 to 206 °C
GI50 [2, 14]: 2.71 µM
GI50 [4, 15]: 1.8 µM
GI50 [5, 16]: 1.85 µM

Molecule: COc1ccc2c3c(c4cc(OC)c(OC)cc4c2c1)C[C@H]1CN(C)CN1C3 [Compound 3i, (S)-12-aza-12N-dimethylamino-antofine]
GI50 [1, 6]: 2.26 µM
GI50 [2, 7]: 2.31 µM
GI50 [4, 8]: 1.67 µM
GI50 ([5]; Example 2, Table 2, 12-aza-antofines, read-out: GI50 HCT-8): 2.01 µM

Molecule: COC1=C[C@@H]2Cc3c(c4ccc(OC)cc4c4cc(OC)c(OC)cc34)CN2C1 [Compound 7, (S)-12-methoxy-antofine-12-ene]
GI50 ([1]; read-out: GI50 DU145): 10.3 µM
GI50 [2]: 12.00 µM
GI50 [3]: 2.64 µM
GI50 ([4]; read-out: GI50 A549): 5.97 µM
GI50 ([5]; read-out: GI50 HCT-8): 3.56 µM

Molecule: COc1ccc2c3c(c4cc(OC)c(OC)cc4c2c1)C[C@H]1CNCCN1C3.Cl.Cl [Compound 8a, (S)-13-aza-cryptopleurine dihydrochloride]
GI50 ([1]; read-out: GI50 DU145): 2.08 µM
GI50 [2]: 1.79 µM
GI50 ([4]; read-out: GI50 A549): 1.73 µM
GI50 ([5]; read-out: GI50 HCT-8): 1.62 µM

Molecule: CCN1CCN2Cc3c(c4cc(OC)c(OC)cc4c4cc(OC)ccc34)C[C@H]2C1 [Compound 8b, (S)-13-aza-13N-ethyl-cryptopleurine]
GI50 [1, 20]: 10.5 µM
melting point: 83 to 85 °C
GI50 [2, 21]: 8.24 µM
GI50 [4, 22]: 7.13 µM
GI50 [5, 23]: 9.45 µM

Molecule: COC(=O)N1CCN2Cc3c(c4cc(OC)c(OC)cc4c4cc(OC)ccc34)C[C@H]2C1 [Compound 8c, (S)-13-aza-13N-methoxycarbonyl-cryptopleurine]
GI50 [1, 20]: 12.2 µM
melting point: 99 to 101 °C
GI50 [2, 21]: 11.3 µM
GI50 [4, 22]: 10.9 µM
GI50 [5, 23]: 12.1 µM

Molecule: COc1ccc2c3c(c4cc(OC)c(OC)cc4c2c1)C[C@H]1CN(C(C)=O)CCN1C3 [Compound 8d, (S)-13-aza-13N-acetyl-cryptopleurine]
GI50 [1, 17]: 11.9 µM
melting point: 123 to 125 °C
GI50 ([2]; Homo sapiens, KB): 15.5 µM
GI50 [4, 18]: 11.7 µM
GI50 [5, 19]: 13.8 µM

Molecule: COc1ccc2c3c(c4cc(OC)c(OC)cc4c2c1)C[C@H]1CN(S(C)(=O)=O)CCN1C3 [Compound 8e, (S)-13-aza-13N-methylsulfonyl-cryptopleurine]
GI50 ([1]; read-out: GI50 DU145): 17 µM
GI50 [2]: 17.52 µM
GI50 ([4]; read-out: GI50 A549): 14.5 µM
GI50 ([5]; read-out: GI50 HCT-8): 17.8 µM

Molecule: COC(=O)CN1CCN2Cc3c(c4cc(OC)c(OC)cc4c4cc(OC)ccc34)C[C@H]2C1 [Compound 8f, (S)-13-aza-13N-methoxycarbonylmethyl-cryptopleurine]
GI50 [1, 20]: 20.8 µM
melting point: 111 to 113 °C
GI50 [2, 21]: 14.7 µM
GI50 [4, 22]: 14.7 µM
GI50 [5, 23]: 14 µM

Molecule: COc1ccc2c3c(c4cc(OC)c(OC)cc4c2c1)C[C@H]1CN(CC2CC2)CCN1C3 [Compound 8g, (S)-13-aza-13N-cyclopropylmethyl-cryptopleurine]
GI50 [1, 20]: 2.94 µM
melting point: 160 to 162 °C
GI50 [2, 21]: 6.57 µM
GI50 [4, 22]: 0.79 µM
GI50 [5, 23]: 0.25 µM

Molecule: COc1ccc2c3c(c4cc(OC)c(OC)cc4c2c1)C[C@H]1CN(C2CC2)CCN1C3 [Compound 8h, (S)-13-aza-13N-cyclopropyl-cryptopleurine]
GI50 [1, 20]: 17.9 µM
melting point: 115 to 117 °C
GI50 [2, 21]: 23.4 µM
GI50 [4, 22]: 23.2 µM
GI50 [5, 23]: 13 µM

Molecule: COc1ccc2c3c(c4cc(OC)c(OC)cc4c2c1)C[C@H]1CN(C(=O)c2ccccc2)CCN1C3 [Compound 8i, (S)-13-aza-13N-benzoyl-cryptopleurine]
GI50 [1, 20]: 15.7 µM
melting point: 203 °C (dec.)
GI50 [2, 21]: 20.1 µM
GI50 [4, 22]: 15 µM
GI50 [5, 23]: 18.1 µM

Molecule: COc1ccc2c3c(c4cc(OC)c(OC)cc4c2c1)C[C@H]1CN(CCO)CCN1C3 [Compound 8j, (S)-13-aza-13N-hydroxylethyl-cryptopleurine]
GI50 [1, 20]: 12.6 µM
melting point: 266 °C (dec.)
GI50 [2, 21]: 8.62 µM
GI50 [4, 22]: 14.1 µM
GI50 [5, 23]: 7.41 µM

Molecule: COc1ccc2c(c1)c1c(c3cc(OC)c(OC)cc32)C[C@H]2CCN(C3CC3)CN2C1 [Compound 11e, (S)-12-aza-12N-cyclopropyl-cryptopleurine]
GI50 ([1]; read-out: GI50 DU145): 14.3 µM
GI50 [2]: 11.47 µM
GI50 ([4]; read-out: GI50 A549): 4.3 µM
GI50 ([5]; read-out: GI50 HCT-8): 5.73 µM

Molecule: COc1ccc2c3c(c4cc(OC)c(OC)cc4c2c1)C[C@H]1CCN(C)CN1C3 [Compound 11f, (S)-12-aza-12N-dimethylamino-cryptopleurine]
GI50 ([1]; Homo sapiens, DU-145, Example 2, Table 4, 12-aza-cryptopleurines, read-out: GI50 DU145): 2.97 µM
GI50 ([2]; Homo sapiens, KB, Example 2, Table 4, 12-aza-cryptopleurines): 3.08 µM
GI50 ([4]; Homo sapiens, A549, Example 2, Table 4, 12-aza-cryptopleurines, read-out: GI50 A549): 1.78 µM
GI50 ([5]; Homo sapiens, HCT-8, Example 2, Table 4, 12-aza-cryptopleurines, read-out: GI50 HCT-8): 2.37 µM

Molecule: COc1ccc2c3c(c4cc(OC)c(OC)cc4c2c1)C[C@H]1C[C@H](O)[C@@H](O)CN1C3 [Compound 24a, (12S,13S,14aS)-12,13-dihydroxyl-cryptopleurine]
GI50 [1, 9]: 0.6 µM
GI50 [2, 10]: 0.84 µM
GI50 [3, 11]: 2.17 µM
GI50 [4, 12]: 0.55 µM

Molecule: COc1ccc2c3c(c4cc(OC)c(OC)cc4c2c1)C[C@H]1C[C@@H](O)[C@H](O)CN1C3 [Compound 24b, (12R,13R,14aS)-12,13-dihydroxyl-cryptopleurine]
GI50 [1, 9]: 17.1 µM
GI50 [2, 10]: 17.5 µM
GI50 [3, 11]: 12.6 µM
GI50 [4, 12]: 14.5 µM

Molecule: CC[C@@]1(O)CCN2Cc3c(c4cc(OC)c(OC)cc4c4cc(OC)ccc34)C[C@H]2C1 [Compound 25, (13R,14aS)-13-ethyl-13-hydroxyl-cryptopleurine]
GI50 [1, 9]: 0.77 µM
GI50 [2, 10]: 0.92 µM
GI50 [3, 11]: 0.87 µM
GI50 [4, 12]: 0.99 µM

Molecule: COc1ccc2c3c(c4cc(OC)c(OC)cc4c2c1)C[C@H]1C[C@@H](OC)CCN1C3 [Compound 26a, (13S,14aS)-13-methoxy-cryptopleurine]
GI50 [1, 9]: 3.57 µM
GI50 [2, 10]: 5.24 µM
GI50 [3, 11]: 3.69 µM
GI50 [4, 12]: 7.11 µM

Molecule: COc1ccc2c3c(c4cc(OC)c(OC)cc4c2c1)C[C@H]1C[C@H](OC)CCN1C3 [Compound 26b, (13R,14aS)-13-methoxy-cryptopleurine]
GI50 [1, 9]: 0.056 µM
GI50 [2, 10]: 0.1 µM
GI50 [3, 11]: 0.066 µM
GI50 [4, 12]: 0.025 µM

Molecule: COc1ccc2c3c(c4cc(OC)c(OC)cc4c2c1)C[C@H]1CCCN1C3 [R-antofine, reference compound]
KB GI50 ([2]; Example 1, Table 1): 0.036 µM
GI50 [2, 10]: 0.036 µM
GI50 [3, 11]: 0.025 µM
GI50 ([4]; Homo sapiens, A549, Example 1, Table 1, read-out: A549 GI50): 0.022 µM

Molecule: (14R,14aS)-11-oxo-14-hydroxyl-cryptopleurine [Compound 21b]
GI50 ([1]; read-out: GI50 DU145): 0.2 µM
GI50 [2]: 0.30 µM
GI50 [3]: 0.12 µM
GI50 ([4]; read-out: GI50 A549): 0.069 µM

Molecule: (14S,14aS)-11-oxo-14-hydroxyl-cryptopleurine [Compound 21a]
GI50 ([1]; read-out: GI50 DU145): 0.033 µM
GI50 [2]: 0.025 µM
GI50 [3]: 0.025 µM
GI50 ([4]; read-out: GI50 A549): 0.01 µM

Molecule: (S)-12-aza-12N-phenyl-cryptopleurine [Compound 11b]
GI50 ([1]; read-out: GI50 DU145): > 40 µM
GI50 [2]: >40 µM
GI50 ([4]; read-out: GI50 A549): > 40 µM
GI50 ([5]; read-out: GI50 HCT-8): 28.4 µM

From patent US9216977B2 (The University of North Carolina at Chapel Hill, priority 2009, dated 2015)
